# Measurements from patent US6924302B2, “Substituted triazole diamine derivatives as kinase inhibitors” (Ortho McNeil Pharmaceutical, Inc., priority 2000, dated 2005).
# Columns and labels:
# CDK1:Cyclin-B = target: T1, CDK1:Cyclin-B (Homo sapiens, UniProt P06493); assay: CDK1 Screening Assay; format: biochemical; settings: Table 1; read-out: CDK1 IC50
# T1 construct: purchased New England Biolabs 6020; host or cells: insect cells
# Method: (§1) 70 μL of the kinase reaction mixture was dispensed into the well of a streptavidin coated FlashPlate™ (Cat. # SMP103, NEN, Boston, Mass.). Then 1 μL of test compound stock in 100% DMSO was added to the wells resulting in a final concentration of 1% DMSO in the reaction with a 100 μl final reaction volume. Next, CDK1:Cyclin-B protein was diluted in 50 mM Tris-HCl pH=8.0, 0.1% BSA at a concentration of 1 ng per μL and 30 μl (30 ng enzyme per test well) was added to each well to initiate the reaction. The reaction was incubated for one hour at 30° C. At the end of the 1-hour incubation, the reaction was terminated by aspirating the reaction mixture from the plate and washing the wells twice with PBS containing 100 mM EDTA. The histone-H1 biotinylated peptide substrate became immobilized on the Flashplate™ and the incorporation of ^33P-γ-ATP was measured by reading the plate on a scintillation counter. Inhibition of the enzymatic activity of CDK1 was measured by observing a reduced amount of ^33P-γ-ATP incorporated into the immobilized peptide.
# Assays to test compound inhibition of other kinases were preformed using methods that measure the amount of phosphorylation of a biotinylated peptide substrate. Biotinylated peptide substrates were selected from the literature as appropriate for the enzyme being evaluated. […] Assay conditions vary slightly for each protein kinase, for example, insulin receptor kinase requires 10 mM MnCl2 for activity and Calmodulin-dependent protein kinase requires calmodulin and 10 mM CaCl2. These assay conditions are known in the art. The reaction mixture was dispensed into the wells of a streptavidin coated Flashplate and 1 μl drug stock in 100% DMSO was added to a 100 μl reaction volume resulting in a final concentration of 1% DMSO on the reaction. Enzyme was diluted in 50 mM Tris-HCl pH=8.0, 0.1% BSA and add to each well. The reaction was incubated for one hour at 30° C. in the presence of compound. After one hour the reaction mix was aspirated from the plate and the plate was washed with PBS containing 100 mM EDTA. The plate was read on a scintillation counter to determine ^33P-γ-ATP incorporated into the immobilized peptide. Test compounds were assayed in duplicate at 8 concentrations [100 uM, 10 uM, 1 uM, 100 nM, 10 nM, 1 nM, 100 pM, 10 pM]. A maximum and minimum signal for the assay was determined on each plate. The IC50 was calculated from the dose response curve of the percent inhibition of the maximum signal in the assay according to the formula [max signal—background/test compound signal—background (100)=% inhibition] by graphing the percent inhibition against the log concentration of test compound. Known inhibitor compounds appropriate for the kinase being assayed were also included on each plate. […]
# [1] = target: T2, VEGF-R (vascular endothelial growth factor receptor-2) (Rattus norvegicus, UniProt O08775); assay: VEGF-R Screening Assay; format: biochemical; settings: Table 1; read-out: VEGF-R IC50
# T2 construct: polyhistidine (6xHIS) (N)
# T2 sequence (O08775 786-1343): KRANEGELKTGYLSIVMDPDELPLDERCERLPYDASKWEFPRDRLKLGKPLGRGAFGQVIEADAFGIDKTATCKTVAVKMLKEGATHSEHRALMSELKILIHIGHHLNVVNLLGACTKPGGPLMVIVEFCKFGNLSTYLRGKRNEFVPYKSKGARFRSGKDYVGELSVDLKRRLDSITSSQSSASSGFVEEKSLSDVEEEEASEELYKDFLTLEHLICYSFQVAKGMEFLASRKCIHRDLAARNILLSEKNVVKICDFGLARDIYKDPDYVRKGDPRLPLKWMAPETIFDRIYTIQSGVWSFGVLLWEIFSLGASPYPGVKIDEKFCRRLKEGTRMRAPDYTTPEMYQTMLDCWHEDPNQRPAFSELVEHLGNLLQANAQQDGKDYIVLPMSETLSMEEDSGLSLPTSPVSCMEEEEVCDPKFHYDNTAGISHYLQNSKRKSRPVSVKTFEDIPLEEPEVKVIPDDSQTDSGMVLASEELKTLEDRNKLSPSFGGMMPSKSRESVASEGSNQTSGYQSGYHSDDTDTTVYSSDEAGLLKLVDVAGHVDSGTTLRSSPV
# Method: as §1, with “a 100 μL final reaction” for “a 100 μl final reaction”, “volume. Next, soluble rat tyrosine kinase containing an N-terminal 6×HIS tag was diluted” for “volume. Next, CDK1:Cyclin-B protein was diluted”, “concentration of 5 ng per” for “concentration of 1 ng per”, “and 30 μL (150 ng enzyme” for “and 30 μl (30 ng enzyme”, “EDTA. The PLC1 biotinylated peptide” for “EDTA. The histone-H1 biotinylated peptide”, “activity of the VEGF-R was measured” for “activity of CDK1 was measured”
# Assays to test compound inhibition of other kinases were preformed using methods that measure the amount of phosphorylation of a biotinylated peptide substrate. Biotinylated peptide substrates were selected from the literature as appropriate for the enzyme being evaluated. […] Assay conditions vary slightly for each protein kinase, for example, insulin receptor kinase requires 10 mM MnCl2 for activity and Calmodulin-dependent protein kinase requires calmodulin and 10 mM CaCl2. These assay conditions are known in the art. The reaction mixture was dispensed into the wells of a streptavidin coated Flashplate and 1 μl drug stock in 100% DMSO was added to a 100 μl reaction volume resulting in a final concentration of 1% DMSO on the reaction. Enzyme was diluted in 50 mM Tris-HCl pH=8.0, 0.1% BSA and add to each well. The reaction was incubated for one hour at 30° C. in the presence of compound. After one hour the reaction mix was aspirated from the plate and the plate was washed with PBS containing 100 mM EDTA. The plate was read on a scintillation counter to determine ^33P-γ-ATP incorporated into the immobilized peptide. Test compounds were assayed in duplicate at 8 concentrations [100 uM, 10 uM, 1 uM, 100 nM, 10 nM, 1 nM, 100 pM, 10 pM]. A maximum and minimum signal for the assay was determined on each plate. The IC50 was calculated from the dose response curve of the percent inhibition of the maximum signal in the assay according to the formula [max signal—background/test compound signal—background (100)=% inhibition] by graphing the percent inhibition against the log concentration of test compound. Known inhibitor compounds appropriate for the kinase being assayed were also included on each plate.
# CDK2 in complex with cyclin A is commercially available (Upstate Biotech, Lake Placid, N.Y.). The CDK4 complex was composed of a mouse CDK4 protein and a mouse Cyclin D1 protein (The mouse CDK4 protein was genetically fused to an N-terminal Flag-epitope tag and the mouse Cyclin D1 protein was fused with an N-terminal AU-1 epitope tag. The genes encoding these proteins were transferred to commercially available baculoviral vectors. The recombinant CDK4/D1 complex was then made by co-infecting commercially available insect cells with viruses carrying these two constructs). […] ERK-1 protein (Discontinued from Calbiochem). EGFR (epidermal growth factor receptor) is purified from human A431 cell membranes (Sigma, St. Louis, Mo., Cat.# E3641).
# T1 sequence (P06493 whole entry): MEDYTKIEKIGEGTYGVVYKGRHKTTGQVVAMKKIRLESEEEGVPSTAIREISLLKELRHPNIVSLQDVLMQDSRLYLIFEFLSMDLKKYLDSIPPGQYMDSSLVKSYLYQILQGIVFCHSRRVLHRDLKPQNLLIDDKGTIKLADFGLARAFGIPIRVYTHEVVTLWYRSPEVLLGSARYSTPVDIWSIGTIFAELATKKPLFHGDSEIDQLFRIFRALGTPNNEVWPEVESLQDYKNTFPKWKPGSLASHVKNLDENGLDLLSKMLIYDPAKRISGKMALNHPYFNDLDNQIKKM
# T1 sequence (P14635 whole entry partner): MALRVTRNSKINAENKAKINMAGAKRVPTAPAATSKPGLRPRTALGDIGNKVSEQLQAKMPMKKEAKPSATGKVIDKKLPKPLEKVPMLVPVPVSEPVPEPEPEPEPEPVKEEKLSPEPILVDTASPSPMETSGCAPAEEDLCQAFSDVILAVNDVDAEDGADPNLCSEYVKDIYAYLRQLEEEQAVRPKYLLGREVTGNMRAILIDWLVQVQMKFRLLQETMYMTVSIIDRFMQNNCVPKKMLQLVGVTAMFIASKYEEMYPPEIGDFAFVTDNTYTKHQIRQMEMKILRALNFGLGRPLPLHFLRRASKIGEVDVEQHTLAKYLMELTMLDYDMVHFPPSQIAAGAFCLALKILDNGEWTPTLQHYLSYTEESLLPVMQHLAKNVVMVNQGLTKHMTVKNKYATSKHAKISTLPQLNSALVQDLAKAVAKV
IC50 (CDK1:Cyclin-B) [nM],IC50 [1] [nM],Structure (SMILES)
8,332,"Nc1nc(Nc2ccc(S(N)(=O)=O)cc2)nn1C(=O)c1c(F)ccc(F)c1F [Cpd 3, 4-[[5-amino-1-(2,3,6-trifluorobenzoyl)-1H-1,2,4-triazol-3-yl]amino]-benzenesulfonamide]"
22.3,387,"Nc1nc(Nc2ccc(S(N)(=O)=O)cc2)nn1C(=O)c1ccccc1F [Cpd 4, 4-[[5-amino-1-(2-fluorobenzoyl)-1H-1,2,4-triazol-3-yl]amino]-benzenesulfonamide]"
144,521,"Nc1nc(Nc2ccc(S(N)(=O)=O)cc2)nn1C(=O)c1ccc(F)cc1F [Cpd 5, 4-[[5-amino-1-(2,4-difluorobenzoyl)-1H-1,2,4-triazol-3-yl]amino]-benzenesulfonamide]"
39.4,8140,"Nc1nc(Nc2ccc(S(N)(=O)=O)cc2)nn1C(=O)c1c(F)cccc1C(F)(F)F [Cpd 6, 4-[[5-amino-1-[2-fluoro-6-(trifluoromethyl)benzoyl]-1H-1,2,4-triazol-3-yl]amino]-benzenesulfonamide]"
57,> 10000,"Nc1nc(Nc2ccc(S(N)(=O)=O)cc2)nn1C(=O)c1c(Cl)cccc1Cl [Cpd 7, 4-[[5-amino-1-(2,6-dichlorobenzoyl)-1H-1,2,4-triazol-3-yl]amino]-benzenesulfonamide]"
136,> 100000,"Nc1nc(Nc2ccc(S(N)(=O)=O)cc2)nn1C(=O)c1c(Cl)cc(Cl)cc1Cl [Cpd 8, 4-[[5-amino-1-(2,4,6-trichlorobenzoyl)-1H-1,2,4-triazol-3-yl]amino]-benzenesulfonamide]"
39,1600,"Nc1nc(Nc2ccc(S(N)(=O)=O)cc2)nn1C(=O)c1ccccc1[N+](=O)[O-] [Cpd 9, 4-[[5-amino-1-(2-nitrobenzoyl)-1H-1,2,4-triazol-3-yl]amino]-benzenesulfonamide]"
252,491,"COc1cccc(OC)c1C(=O)n1nc(Nc2ccc(S(N)(=O)=O)cc2)nc1N [Cpd 10, 4-[[5-amino-1-(2,6-dimethoxybenzoyl)-1H-1,2,4-triazol-3-yl]amino]-benzenesulfonamide]"
305,> 100000,"Cc1cc(C)c(C(=O)n2nc(Nc3ccc(S(N)(=O)=O)cc3)nc2N)c(C)c1 [Cpd 11, 4-[[5-amino-1-(2,4,6-trimethylbenzoyl)-1H-1,2,4-triazol-3-yl]amino]-benzenesulfonamide]"
535,532,"Nc1nc(Nc2ccc(S(=O)(=O)N3CCCCC3)cc2)nn1C(=O)c1c(F)cccc1F [Cpd 13, 1-(2,6-difluorobenzoyl)-N^3-[4-(1-piperidinylsulfonyl)phenyl]-1H-1,2,4-triazole-3,5-diamine]"
67,58,"CCOc1ccsc1C(=O)n1nc(Nc2ccc(S(N)(=O)=O)cc2)nc1N [Cpd 18, 4-[[5-amino-1-[(3-ethoxy-2-thienyl)carbonyl]-1H-1,2,4-triazol-3-yl]amino]-benzenesulfonamide]"
33.9,291,"CC(=O)Nc1ccsc1C(=O)n1nc(Nc2ccc(S(N)(=O)=O)cc2)nc1N [Cpd 19, N-[2-[[5-amino-3-[[4-(aminosulfonyl)phenyl]amino]-1H-1,2,4-triazol-1-yl]carbonyl]-3-thienyl]-acetamide]"
4.4,31,"Cc1ccc(C(=O)n2nc(Nc3ccc(S(N)(=O)=O)cc3)nc2N)s1 [Cpd 20, 4-[[5-amino-1-[(5-methyl-2-thienyl)carbonyl]-1H-1,2,4-triazol-3-yl]amino]-benzenesulfonamide]"
8.8,23,"Nc1nc(Nc2ccc(S(N)(=O)=O)cc2)nn1C(=O)c1ccc(Br)s1 [Cpd 21, 4-[[5-amino-1-[(5-bromo-2-thienyl)carbonyl]-1H-1,2,4-triazol-3-yl]amino]-benzenesulfonamide]"
31.8,233,"CC(=O)c1ccc(C(=O)n2nc(Nc3ccc(S(N)(=O)=O)cc3)nc2N)s1 [Cpd 22, 4-[[1-[(5-acetyl-2-thienyl)carbonyl]-5-amino-1H-1,2,4-triazol-3-yl]amino]-benzenesulfonamide]"
282,67.4,"Cc1ccsc1C(=O)n1nc(Nc2ccc(S(=O)(=O)N3CCCCC3)cc2)nc1N [Cpd 24, 1-[(3-methyl-2-thienyl)carbonyl]-N^3-[4-(1-piperidinylsulfonyl)phenyl]-1H-1,2,4-triazole-3,5-diamine]"
19.5,64,"Nc1nc(Nc2ccc(S(N)(=O)=O)cc2)nn1C(=O)c1ccco1 [Cpd 25, 4-[[5-amino-1-(2-furanylcarbonyl)-1H-1,2,4-triazol-3-yl]amino]-benzenesulfonamide]"
18400,~100000,"Nc1nc(Nc2ccc(S(N)(=O)=O)cc2)nn1C(=O)c1ccno1 [Cpd 26, 4-[[5-amino-1-(5-isoxazolylcarbonyl)-1H-1,2,4-triazol-3-yl]amino]-benzenesulfonamide]"
~100000,> 100000,"Nc1nc(Nc2ccc(S(N)(=O)=O)cc2)nn1C(=O)c1ccccn1 [Cpd 27, 4-[[5-amino-1-(2-pyridinylcarbonyl)-1H-1,2,4-triazol-3-yl]amino]-benzenesulfonamide]"
982,13200,"Nc1nc(Nc2ccc(S(N)(=O)=O)cc2)nn1C(=O)c1cccnc1 [Cpd 28, 4-[[5-amino-1-(3-pyridinylcarbonyl)-1H-1,2,4-triazol-3-yl]amino]-benzenesulfonamide]"
70400,~100000,"Nc1nc(Nc2ccc(S(N)(=O)=O)cc2)nn1C(=O)c1ccncc1 [Cpd 29, 4-[[5-amino-1-(4-pyridinylcarbonyl)-1H-1,2,4-triazol-3-yl]amino]-benzenesulfonamide]"

Structure (SMILES),IC50 (CDK1:Cyclin-B) [nM],IC50 [1] [nM]
"Nc1nc(Nc2ccc(S(N)(=O)=O)cc2)nn1C(=O)c1ccccc1 [Cpd 12, 4-[(5-amino-1-benzoyl-1H-1,2,4-triazol-3-yl)amino]-benzenesulfonamide]",45.4,84.1
